{"source": "PubChem BioAssay AID1259407", "about": "(Chemical Carcinogenesis Research Information System (CCRIS), 2018)", "test_system": "CCRIS mutagenicity, Ames/micronucleus/aberration tests", "assay": "CCRIS mutagenicity studies", "key": {"[1]": {"conditions": "Test System: AMES SALMONELLA TYPHIMURIUM, Strain/Indicator: TA100, Metabolic Activation: NONE, Method: STANDARD PLATE"}}, "note": "Activity calls are given as the source filed them. The rule behind the calls is not given here."}
{"smiles": "O=C(O)c1ccc([N+](=O)[O-])cc1[N+](=O)[O-]", "values": [{"measurement": "mutagenic call", "setting": "End Point: In vitro chromosomal aberrations, Test System: V79 Chinese hamster fibroblasts, Metabolic Activation: None", "value": "active; positive (structural changes)"}, {"measurement": "mutagenic call", "setting": "End Point: In vitro micronucleus, Test System: HepG2 human hepatoma cells, Metabolic Activation: None", "value": "active; positive"}, {"measurement": "mutagenic call", "setting": "Test System: AMES SALMONELLA TYPHIMURIUM, Strain/Indicator: TA98, Metabolic Activation: RAT, LIVER, S-9, AROCLOR, Method: PREINCUBATION", "value": "active; positive"}, {"measurement": "mutagenic call", "setting": "Test System: AMES SALMONELLA TYPHIMURIUM, Strain/Indicator: TA98, Metabolic Activation: RAT, LIVER, S-9, KANECHLOR 500, Method: PREINCUBATION", "value": "inactive; negative"}, {"measurement": "mutagenic call", "setting": "Test System: AMES SALMONELLA TYPHIMURIUM, Strain/Indicator: TA100, Metabolic Activation: RAT, LIVER, S-9, KANECHLOR 500, Method: PREINCUBATION", "value": "inactive; negative"}, {"measurement": "mutagenic call", "setting": "Test System: Ames Salmonella typhimurium, Strain/Indicator: TA98, Metabolic Activation: None, Method: Standard plate", "value": "active; positive"}, {"measurement": "mutagenic call", "setting": "Test System: Ames Salmonella typhimurium, Strain/Indicator: TA98, Metabolic Activation: Rat, Liver, S-9, Method: Standard plate", "value": "active; positive"}, {"measurement": "mutagenic call", "setting": "Test System: Ames Salmonella typhimurium, Strain/Indicator: TA98NR, Metabolic Activation: None, Method: Standard plate", "value": "active; positive, ta98nr is the nitroreductase-deficient derivative of ta98."}, {"measurement": "mutagenic call", "setting": "Test System: Ames Salmonella typhimurium, Strain/Indicator: TA100, Metabolic Activation: None, Method: Standard plate", "value": "inactive; negative"}, {"measurement": "mutagenic call", "setting": "Test System: Ames Salmonella typhimurium, Strain/Indicator: TA100, Metabolic Activation: Rat, Liver, S-9, Method: Standard plate", "value": "inactive; negative"}]}
{"smiles": "c1ccc([C@H]2CO2)cc1", "values": [{"measurement": "mutagenic call", "setting": "Test System: AMES SALMONELLA TYPHIMURIUM, Strain/Indicator: TA100, Metabolic Activation: NONE", "value": "active; positive"}, {"measurement": "mutagenic call", "setting": "[1]", "value": "active; positive"}]}
{"smiles": "Cc1ccc(CCl)cc1", "values": [{"measurement": "mutagenic call", "setting": "[1]", "value": "inactive; negative"}]}
{"smiles": "O=[N+]([O-])c1ccc(Cl)c(F)c1", "values": [{"measurement": "mutagenic call", "setting": "End Point: IN VITRO CHROMOSOMAL ABERRATIONS, Test System: HUMAN PERIPHERAL LYMPHOCYTES, Metabolic Activation: NONE", "value": "inactive; negative"}]}
{"smiles": "CC/C=C\\C=C\\CCCCCCOC(C)=O", "values": [{"measurement": "mutagenic call", "setting": "Test System: AMES SALMONELLA TYPHIMURIUM, Strain/Indicator: TA98, Metabolic Activation: NONE, Method: STANDARD PLATE", "value": "inactive; negative"}, {"measurement": "mutagenic call", "setting": "Test System: AMES SALMONELLA TYPHIMURIUM, Strain/Indicator: TA98, Metabolic Activation: RAT, LIVER, S-9, Method: STANDARD PLATE", "value": "inactive; negative"}, {"measurement": "mutagenic call", "setting": "[1]", "value": "inactive; negative"}, {"measurement": "mutagenic call", "setting": "Test System: AMES SALMONELLA TYPHIMURIUM, Strain/Indicator: TA100, Metabolic Activation: RAT, LIVER, S-9, Method: STANDARD PLATE", "value": "inactive; negative"}, {"measurement": "mutagenic call", "setting": "Test System: AMES SALMONELLA TYPHIMURIUM, Strain/Indicator: TA102, Metabolic Activation: NONE, Method: STANDARD PLATE", "value": "inactive; negative"}, {"measurement": "mutagenic call", "setting": "Test System: AMES SALMONELLA TYPHIMURIUM, Strain/Indicator: TA102, Metabolic Activation: RAT, LIVER, S-9, Method: STANDARD PLATE", "value": "inactive; negative"}]}
